Patent publication US6733971B2, “Method for identifying an agent that affects a hedgehog signaling pathway” (priority 1998, dated 2004)

How the values were obtained:
[1] = test system: COUP-TFII mRNA; test: COUP-TFII mRNA in P19 cells, RNase protection assay; assay type: cell-based, mouse; details: for Shh-induced COUP-TFII mRNA: with 1.0 nM Shh-N
Description: The P19 mouse embryo carcinoma cell line which was earlier shown to contain increased levels of COUP-TF transcripts after retinoid treatment was utilized. Jonk, L. J. C., et al., Mechan. of Dev. (1994) 47:81-97). Conditioned media obtained from COS-1 cells transfected with mouse Shh-N cDNA expression plasmid or purified E. coli expressed recombinant Shh-N was used.
Briefly, a total of 20 μg RNA was hybridized to a 450 (FIG. 5A) or 120 (FIG. 7B) nucleotide riboprobe that corresponds to the 5′ untranslated region (UTR) of the COUP-TFII gene along with a 670 (FIG. 5A) or 102 (FIG. 7B) nucleotide riboprobe of the murine Cyclophilin A coding region. The RPA II™ kit from Ambion was used to perform the RNase protection assay. The products were subjected to RNase digestion and analyzed on a 6% urea polyacrylamide gel.
(§1) P-19 cells were treated with phosphatase inhibitors to study the endogenous levels of COUP-TFII mRNA. […] Total RVA was isolated from these cells and 20 μg of RNA was used in a RNase protection assay as described above in Example 6. A region of the murine Cyclophilin A cDNA was used to generate riboprobe and was used as an internal control. P19 cells were co-treated with (FIG. 7C, lane 2, 4, 6, and 7) or without (FIG. 7C, lane 1, 3, and 5) 1.0 nM Shh-N and 5 nM OA (lane 3 and 4), 0.5 nM CyA (FIG. 7C, lane 5 & 6) or 5 nm NoA (FIG. 7C, lane 9). Cells were harvested after 24 hours of treatment and the nuclear extract was obtained for the binding reactions. Extracts were subjected to an EMSA as described earlier.

[2] = test system: ShhRE; test: EMSA of Shh-induced protein binding to radiolabeled ShhRE, P19 nuclear extracts; assay type: cell-based, mouse; details: 1.0 nM Shh-N, 24 hours
Description: Methods described in Example 6 were used in addition to the following protocols. P19 cells were treated with or without Shh-N for 24 hours and nuclear extracts were obtained and used in an electrophoretic mobility shift assay (EMSA) with radiolabeled ShhRE. The following oligos were used as competitors or probes in these assays; WT ShhRE—GTTCTACATAATGCGCCG—SEQ ID NO:1; mShhRE—GTTCTACgTgATGCGCCG—SEQ ID NO:3; GliRE—[…]—. SEQ ID NO:4, Different amounts of unlabeled Gli response element (GliRE) (FIG. 5C, lane 3, 100X; lane 4, 50X; lane 5, 25X; and lane 6, 10X) or ShhRE (lane 7; 100X, lane 8; 50X and lane 9; 10X) was used as a competitor at the indicated molar excess.
In EMSA, radiolabeled probe was incubated with the nuclear extracts (10 μg) along with 4 μg poly dG-dC in a binding reaction containing 10 mM Tris pH 7.5, 50 mM NaCl, 1 mM EDTA, 1 mM DTT, 0.1 mg/ml BSA, and 5% glycerol. Later the mixture was loaded onto a 5% polyacrylamide gel and the retarded complexes were separated-in 1× TBE buffer and analyzed using autoradiography.
as §1

[3] = target: phosphatase 1 (PP1); details: read-out: IC50, phosphatase 1 (PP1) inhibition; cited from earlier work
[4] = test system: Ci; test: Ci induction in cl-8 cells with or without HH-N conditioned medium, Western blot; assay type: cell-based, Drosophila; details: up to 100 nM, 4 hours, presence of HH or not
Description: cl-8 cells were cultured as described in Van Leeuwen, F., et al. Nature, 368:342-344, 1994. Culture and transfection of S2 cells were performed as described in Porter, J. A. et al. Cell, 86: 21-34, 1996. The conditioned medium was made by culturing transfected S2 cells in cl-8 medium, and induced by adding CUSO4, to the final concentration of 0.5 Mm overnight. The conditioned medium was harvested the next day, centrifuged to remove S2 cells and the supernatant was used. To make lysate from cl-8 cells, cl-8 cells were washed, harvested in cold phosphate buffered saline (PBS), and then resuspended in NP-40 lysis buffer (150 Mm NaCl, 50 Mm Tris pH8, 1% NP-40, 1 Mm EDTA, 20 μg/ml aprotinin, 20 μg/ml leupeptin, 1 μg/ml pepstatin A, 2.5 μg/ml antipain, 100 μM PMSF, 50 mM NaF, 5 mM Na2P4O7). Cells were lysed at 4° C. for 10 minutes, then centrifuged at 13,000×g for 10 minutes. The supernatant was saved for Western blot analysis.
SDS-PAGE and protein transfer were carried out by standard methods. The primary antibodies used were: rat monoclonal anti-Ci 2Al 1:20 dilution; mouse monoclonal anti-Ptc 1:1000 dilution; mouse monoclonal anti-actin 1:2500. Secondary antibodies were from Jackson Immunologicals. The filters were developed using SuperSignal from Pierce.
Tautomycin (TAU) and okadaic acid (OA) were purchased from Calbiochem and dissolved in dimethyl sulfoxide (DMSO) to different concentrations. The phosphatase inhibitors were mixed with conditioned medium and the concentration of DMSO was adjusted to 0.2% for each sample. cl-8 cells were incubated with conditioned medium and phosphatase inhibitor mixture for 4 hours and lysed for analysis.

[5] = test system: ShhRE; test: ShhRE-tkCAT reporter mRNA and enzyme activity in P19 cells with cycloheximide; assay type: cell-based, mouse; details: 50 μM for 14 hours
Description: Methods described in Example 6 were used in addition to the following protocols. P19 cells were co-transfected with either three copies of the ShhRE or mutant ShhRE (mShhRE) element placed upstream of the tk-CAT along with tk-LUC plasmid as an internal control. Cells were treated with 1.0 nM Shh-N (12 hours) and with or without 50 μM cycloheximide (Chx) for 14 hours and harvested to obtain total RNA. Sixty μg of total RNA from these cells were used in an RNase protection assay. RNase protection assays were performed as described in Example 6. Specific riboprobes were generated to analyze the relative levels of the CAT and LUC mRNA levels. A 255 bp region of the CAT coding sequence or 123 bp of the luciferase coding region was used to generate an antisense riboprobe and was hybridized with 60 μg of total RNA, obtained from transfected P19 cells. The amount (50 μM) and extent (14 hours) of cycloheximide treatment was based on inhibition of protein synthesis as indicated by a significant loss in reporter enzyme activity.

[6] = target: T1, lambda phosphatase (Escherichia phage lambda, UniProt P03772); test: Lambda phosphatase treatment of immunoprecipitated Ci, mobility shift; assay type: biochemical; details: 1 mM sodium orthovanadate, 30° C. for 1 hour
T1 sequence (P03772 1-221): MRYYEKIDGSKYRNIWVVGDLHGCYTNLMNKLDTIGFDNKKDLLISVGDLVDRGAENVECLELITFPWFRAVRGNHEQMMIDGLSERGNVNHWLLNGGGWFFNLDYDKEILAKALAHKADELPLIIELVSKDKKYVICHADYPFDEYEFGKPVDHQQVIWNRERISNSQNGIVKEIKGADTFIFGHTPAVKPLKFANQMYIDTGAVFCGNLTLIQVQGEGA
Description: cl-8 cells were incubated in conditioned medium for 4 hours and lysed on ice for 20 minutes in 1 ml of NP-40 lysis buffer per T75 flask. The lysate was incubated with 100 μl of anti-Ci 2A1 or 0.3 μl of normal rat serum at 4° C. for 2 hours. 50 μl of 50% Protein G beads were added and incubated for 1 hour. The beads were collected and washed in NP-40 lysis buffer, then in lambda phosphatase buffer (50 mM Tris pH 7.8, 5 mM dithiothritol, 20 mM MnCl2, […] bovine serum albumin, 20 μg/ml aprotinin, 20 μg/ml leupeptin, 1 μg/ml pepstatin A, 2.5 μg/ml antipain, 100 μM PMSF). The beads were resuspended in 50 μl of lambda phosphatase buffer, plus 1 mM of sodium orthovanadate or 1.5 μl (30 unit) of lambda phosphatase according to the procedure. Each sample was incubated at 30° C. for 1 hour, then washed in NP-40 lysis buffer, and was boiled in SDS sample buffer for analysis.

[7] = test system: PP1 and PP2A enzyme activity; test: Protein phosphatase assay on nuclear extracts of control and Shh treated P19 cells; assay type: biochemical, mouse
Description: P19 cells were treated with or without 1 nM Shh for 36 hours and nuclear extracts from these cells were obtained as described earlier. A protein phosphatase assay system™ (Life Technologies, Bethesda) was used to quantitate the phosphatase activity present in the control and induced extracts. P19 cells were treated with or without 1 nM Shh for 36 hours and nuclear extracts from these cells were obtained and incubated with 2 nM OA or 4 nM Inh-2 protein for 15 minutes at 30° C. Results are expressed as mean±sd from three separate experiments.

Molecule: COC[C@@H]([C@H](O)[C@H](O)C(=O)NCC[C@H](C)c1nc(/C=C/C[C@@H]2O[C@]3(C[C@@H](O)[C@@H]2C)O[C@H]([C@H](C[C@H](O)[C@H](C)[C@H](O)[C@H](C)/C=C(C)/C(C)=C/C=C/C(C)=C\C#N)OC)[C@H](OP(=O)(O)O)C3(C)C)co1)N(C)C [CyA, calyculin A]
- Shh-induced COUP-TFII mRNA ([1]; 0.5 nM for 12 hours): complete inhibition
- Shh-induced binding to radiolabeled ShhRE ([2]; 0.5 nM): abolished

Molecule: CO[C@H]([C@H](O)CC(=O)[C@@H](C)[C@@H](O)CC[C@@H](C)[C@@H]1O[C@]2(CC[C@@H](C)[C@H](CC[C@H](C)C(C)=O)O2)CC[C@@H]1C)[C@H](OC(=O)C[C@@H](O)C1=C(C)C(=O)OC1=O)C(C)C [TAU, Tautomycin]
- IC50 [3]: 10 nM
- effect on Ci [4]: did not to have any effect

Molecule: C[C@@H]1C[C@@H]([C@H](O)CC2CC(=O)NC(=O)C2)C(=O)[C@@H](C)C1 [cycloheximide]
- CAT and luciferase activities [5]: inhibited
- Shh-induced increase in CAT mRNA ([5]; 1 nM Shh-N): not altered

Molecule: [Na+].[Na+].[Na+].[O]=[V]([O-])([O-])[O-] [sodium orthovanadate]
- effect of lambda phosphatase on Ci mobility [6]: reversed

Molecule: Nor-Okadone [NoA]
- Shh-induced COUP-TFII mRNA ([1]; 5 nM for 12 hours): incapable of inhibiting
- Shh-induced binding to radiolabeled ShhRE ([2]; 5 nM): unable to inhibit

Molecule: Shh-N: purified E. coli expressed recombinant amino-terminal fragment of mouse Sonic hedgehog
- net increase in phosphatase activity after Shh treatment ([7]; 1 nM Shh, 36 hours, P19 nuclear extracts): 2 fold
- concentration at which a significant increase in COUP-TFII mRNA was observed ([1]; P19 cells, 24 hours, densitometric analysis): ≤ 0.2 nM

B1: Inhibitor-2: Inh-2 protein, a specific inhibitor of PP1 (protein, UniProt P41236 2-205, looked up)
Protein phosphatase inhibitor …: AASTASHRPIKGILKNKTSTTSSMVASAEQPRGNVDEELSKKSQKWDEMNILATYHPADKDYGLMKIDEPSTPYHSMMGDDEDACSDTEATEAMAPDILARKLAAAEGLEPKYRIQEQESSGEEDSDLSPEEREKKRQFEMKRKLHYNEGLNIKLARQLISKDLHDDDEDEEMLETADGESMNTEESNQGSTPSDQQQNKLRSS
- Shh-induced phosphatase activity ([7]; 4 nM Inh-2 protein, 15 minutes at 30° C.): unable to inhibit
